Where a chain is given by its changes, count along the chain named. Active and inactive are the calls of the source. The rule behind the calls is not given here.
Assays:
[1] = target: T1, Muscarinic acetylcholine receptor M1 (Rattus norvegicus) (UniProt P08482); experiment: (§1) Positive allosteric modulation of rat M1 receptor expressed in CHO cells assessed as increase in acetylcholine-induced calcium mobilization pretreated for 2.5 mins followed by acetylcholine addition and measured after 1 min by Fluo-4-AM dye based assay; format: functional, cell-based
T1 sequence (whole entry): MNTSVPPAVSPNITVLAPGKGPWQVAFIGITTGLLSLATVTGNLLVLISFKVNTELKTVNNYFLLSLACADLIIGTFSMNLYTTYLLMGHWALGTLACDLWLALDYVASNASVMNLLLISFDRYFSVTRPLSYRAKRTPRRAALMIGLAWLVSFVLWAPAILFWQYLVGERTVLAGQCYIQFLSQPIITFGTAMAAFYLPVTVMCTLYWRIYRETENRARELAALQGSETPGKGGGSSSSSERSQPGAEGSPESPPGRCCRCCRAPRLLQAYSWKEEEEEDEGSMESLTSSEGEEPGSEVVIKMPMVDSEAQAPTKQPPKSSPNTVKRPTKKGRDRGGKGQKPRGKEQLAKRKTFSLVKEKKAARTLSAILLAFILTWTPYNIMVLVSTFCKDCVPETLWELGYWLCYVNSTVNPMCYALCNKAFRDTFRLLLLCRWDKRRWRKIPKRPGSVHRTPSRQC

[2] = target: T2, Muscarinic acetylcholine receptor M1 (Rattus norvegicus, UniProt P08482); experiment: as §1; format: functional, cell-based
T2 sequence (P08482 whole entry): T1 sequence (whole entry)

[3] = target: T1, Muscarinic acetylcholine receptor M1 (Rattus norvegicus); experiment: (§2) Agonist activity at rat M1 receptor expressed in CHO cells assessed as increase in calcium mobilization measured after 2.5 mins by Fluo-4-AM dye based assay; format: functional, cell-based
[4] = target: T2, Muscarinic acetylcholine receptor M1; experiment: as §2; format: functional, cell-based
[5] = target: T3, Muscarinic acetylcholine receptor M1 (Homo sapiens) (UniProt P11229); experiment: (§3) Positive allosteric modulation of human M1 receptor expressed in CHO cells assessed as increase in acetylcholine-induced calcium mobilization pretreated for 2.5 mins followed by acetylcholine addition and measured after 1 min by Fluo-4-AM dye based assay; format: functional, cell-based
T3 sequence (whole entry): T1 sequence (whole entry) with V5A, S254T, S309P, K320R, G337A, V413I

[6] = target: T4, Muscarinic acetylcholine receptor M1 (Homo sapiens, UniProt P11229); experiment: as §3; format: functional, cell-based
T4 sequence (P11229 whole entry): T1 sequence (whole entry) with V5A, S254T, S309P, K320R, G337A, V413I

[7] = target: T4, Muscarinic acetylcholine receptor M1; experiment: Agonist activity at human M1 receptor expressed in CHO cells assessed as increase in calcium mobilization measured after 2.5 mins by Fluo-4-AM dye based assay; format: functional, cell-based
[8] = Protein binding in rat plasma assessed as unbound fraction at 5 uL measured after 4 hrs by LC-MS/MS based equilibrium dialysis method; format: ADME, cell-free
[9] = Protein binding in human plasma assessed as unbound fraction at 5 uL measured after 4 hrs by LC-MS/MS based equilibrium dialysis method; format: ADME, cell-free
[10] = Protein binding in rat brain assessed as unbound fraction; format: ADME, tissue-based
[11] = Total brain to plasma partition coefficient, Kp in cannulated Sprague-Dawley rat at 0.2 mg/kg, iv administered via jugular vein as cassette dose measured after 0.25 hrs by LC-MS/MS analysis; format: ADME, organism-based; details: for Kp at 0.25 h: Sprague-Dawley, brain and plasma; for Kp: brain, 0.25 h, BLD = below limit of detection
[12] = Ratio of unbound brain to plasma concentration in cannulated Sprague-Dawley rat at 0.2 mg/kg, iv administered via jugular vein as cassette dose measured after 0.25 hrs by LC-MS/MS analysis; format: ADME, organism-based; details: for Kp uu at 0.25 h: Sprague-Dawley, brain and plasma, read-out: K(p,uu,brain); for K(p,uu,brain): 0.25 h, BLD = below limit of detection
[13] = Total brain to plasma partition coefficient, Kp in C57BL/6J mouse at 100 mg/kg, ip after 1 hr by LC-MS/MS analysis; format: ADME, organism-based; details: brain and plasma
[14] = Ratio of unbound brain to plasma concentration in C57BL/6J mouse at 100 mg/kg, ip after 1 hr by LC-MS/MS analysis; format: ADME, organism-based; details: brain and plasma, read-out: K(p,uu,brain)
[15] = system: Mus musculus; experiment: Cholinergic toxicity in C57BL/6J mouse assessed as induction of seizure activity at 100 mg/kg, ip measured within 30 mins; format: organism-based; details: in vivo, 0.5 h

SMILES	%max [1]	EC50 ([2]; read-out: EC50)	%max [3]	EC50 ([4]; read-out: EC50)	EC50 ([4]; read-out: pEC50 (converted))	further results
Cn1ccc(-c2ccc(Cc3cc(C(=O)N[C@@H]4CCOC[C@H]4O)nc4c3ccn4C)cc2)n1	87%	40 nM	65%	2240 nM	–	%max [5]: 83%; EC50 [6]: 60 nM; EC50 [7]: 60.3 nM; fraction unbound at 4 h, 5 uL [8]: 0.03; fraction unbound at 4 h, 5 uL [9]: 0.02; fraction unbound [10]: 0.01; Kp at 0.25 h [11]: 0.11; Kp uu at 0.25 h [12]: 0.05; Kp at 1 h [13]: 0.09; Kp uu at 1 h [14]: 0.04; Activity [15]: Toxic
Cn1ccc2c(Cc3ccc(-c4nccs4)cc3)cc(C(=O)N[C@@H]3CCOC[C@H]3O)nc21	90%	100 nM	41%	5620 nM	–	%max [5]: 80%; EC50 [6]: 90 nM; EC50 [7]: 89.1 nM; fraction unbound at 4 h, 5 uL [8]: 0.02; fraction unbound at 4 h, 5 uL [9]: 0.02; fraction unbound [10]: 0.01; Kp at 0.25 h [11]: 0.21; Kp uu at 0.25 h [12]: 0.13; Activity [15]: Toxic
Cn1ccc(-c2ccc(Cc3cc(C(=O)NC4CC5(COC5)C4)nc4c3ccn4C)cn2)n1	89%	570 nM	–	> 30000 nM	> 31600 nM	–
Cn1cc(-c2ccc(Cn3cc(C(=O)N[C@H]4CCCC[C@@H]4O)c4c(F)cc(F)cc43)cn2)cn1	–	–	–	–	–	Activity [1]: inactive
Cn1ccc(-c2ccc(Cc3cc(C(=O)NCC4CCOCC4)nc4c3ccn4C)cn2)n1	87%	1580 nM	–	> 30000 nM	> 31600 nM	–
Cn1cc(-c2ccc(Cc3cc(C(=O)N[C@@H]4CCCC[C@H]4O)nc4c3ccn4C)cn2)cn1	89%	40 nM	58%	1210 nM	–	fraction unbound at 4 h, 5 uL [8]: 0.06; fraction unbound at 4 h, 5 uL [9]: 0.04; fraction unbound [10]: 0.07; Kp [11]: Bld; K(p,uu,brain) [12]: Bld; Kp at 1 h [13]: 0.03; Kp uu at 1 h [14]: 0.04; Activity [15]: Toxic
O=C(N[C@H]1CCCC[C@@H]1O)C1CN(Cc2ccc(-n3cccn3)cc2)c2ccccc2O1 (some centres undefined)	–	–	–	–	–	Activity [1]: inactive
Cn1ccc2c(Cc3ccc(-n4cccn4)cc3)cc(C(=O)NC3CCOCC3)nc21	87%	490 nM	26%	–	> 10000 nM	EC50 ([4]; cho, read-out: EC50): > 10000 nM
Cn1ccc(-c2ccc(Cc3cc(C(=O)N[C@@H]4CCOC[C@H]4O)nc4c3ccn4C)cn2)n1	86%	14 nM	67%	575 nM	–	–
Cn1ccc2c(Cc3ccc(-c4nccs4)cc3)cc(C(=O)N[C@@H]3CCCC[C@H]3O)nc21	91%	360 nM	–	> 30000 nM	> 31600 nM	–
Cn1ccc(-c2ccc(Cc3cc(C(=O)N[C@@H]4CCC[C@H]4O)nc4c3ccn4C)cn2)n1	86%	260 nM	–	–	> 10000 nM	EC50 ([4]; cho, read-out: EC50): > 10000 nM
Cn1ccc2c(Cc3ccc(-c4nccs4)cc3)cc(C(=O)NC3CCOCC3)nc21	78%	1740 nM	–	> 30000 nM	> 31600 nM	–
Cc1nc(-c2ccc(Cc3cc(C(=O)NC4CCOCC4)nc4c3ccn4C)cc2)co1	88%	760 nM	–	–	> 10000 nM	EC50 ([4]; cho, read-out: EC50): > 10000 nM
Cn1ccc(-c2ccc(Cc3cc(C(=O)NC4CCOCC4)nc4c3ccn4C)cn2)n1	90%	760 nM	34%	–	> 10000 nM	EC50 ([4]; cho, read-out: EC50): > 10000 nM
Cn1ccc(-c2ccc(Cc3cc(C(=O)NC[C@@H]4CCCO4)nc4c3ccn4C)cn2)n1	84%	490 nM	–	–	> 10000 nM	EC50 ([4]; cho, read-out: EC50): > 10000 nM
Cn1ccc2c(Cc3ccc(-c4cscn4)cc3)cc(C(=O)NC3CCOCC3)nc21	86%	760 nM	–	> 30000 nM	> 31600 nM	–
Cn1ccc(-c2ccc(Cc3cc(C(=O)NC4CCOC(C)(C)C4)nc4c3ccn4C)cn2)n1 (centres undefined)	94%	550 nM	–	–	> 10000 nM	EC50 ([4]; cho, read-out: EC50): > 10000 nM
Cn1ccc(-c2ccc(Cc3cc(C(=O)NC4CCOCC4)nc4c3ccn4C)cc2)n1	89%	560 nM	–	> 10000 nM	–	%max [5]: 87%; EC50 [6]: 660 nM; EC50 [7]: 661 nM; fraction unbound at 4 h, 5 uL [8]: 0.04; fraction unbound at 4 h, 5 uL [9]: 0.02; fraction unbound [10]: 0.01; Kp [11]: Bld; K(p,uu,brain) [12]: Bld
Cn1ccc(-c2ccc(Cc3cc(C(=O)N[C@@H]4CCCC[C@H]4O)nc4c3ccn4C)cn2)n1	87%	90 to 100 nM	53%	2290 nM	–	EC50 ([2]; read-out: pEC50 (converted)): 95.5 nM; %max [5]: 79%; EC50 [6]: 120 nM; EC50 [7]: 123 nM; fraction unbound at 4 h, 5 uL [8]: 0.03; fraction unbound at 4 h, 5 uL [9]: 0.12; fraction unbound [10]: 0.04; Kp [11]: Bld; K(p,uu,brain) [12]: Bld; Kp at 1 h [13]: 0.28; Kp uu at 1 h [14]: 0.17; Activity [15]: Toxic
Cn1ccc(-c2ccc(Cc3cc(C(=O)NC4CC5(COC5)C4)nc4c3ccn4C)cc2)n1	91%	604 nM	–	> 10000 nM	–	–
Cn1ccc(-c2ccc(Cc3cc(C(=O)N[C@@H]4CCCC[C@H]4O)nc4c3ccn4C)cc2)n1	87%	180 nM	41%	3240 nM	–	%max [5]: 84%; EC50 [6]: 180 nM; EC50 [7]: 182 nM

Source: ChEMBL document CHEMBL4229572, “VU6007477, a Novel M1 PAM Based on a Pyrrolo[2,3-b]pyridine Carboxamide Core Devoid of Cholinergic Adverse Events” (ACS Med Chem Lett, 2018)
